The CheMixHub ionic liquid set
Several values for one entry are separate records, joined by “and”; a condition that tells them apart may be missing. Equal values may be shown once.

Test: xn = mol fraction of the nth substance listed

Cn1cc[n+](CCC(=O)O)c1.[Cl-] + O
viscosity [mPa·s], 100 kPa
Conditions	x1 = 0.0009214	x1 = 0.001799	x1 = 0.003593	x1 = 0.005399	x1 = 0.00717	x1 = 0.008993
293.15 K	1.006	1.022	1.056	1.092	1.128	1.167
298.15 K	0.893	0.907	0.937	0.966	0.995	1.03
303.15 K	0.802	0.814	0.839	0.865	0.89	0.922
308.15 K	0.726	0.735	0.759	0.783	0.807	0.831
313.15 K	0.658	0.668	0.689	0.711	0.73	0.75

Cn1cc[n+](CCC[n+]2ccn(C)c2)c1.[Br-].[Br-] + O
viscosity [mPa·s], 101 kPa
Conditions	x1 = 0.0005912	x1 = 0.0006805	x1 = 0.0007474	x1 = 0.0009122	x1 = 0.00129	x1 = 0.00144	x1 = 0.001838	x1 = 0.002094	x1 = 0.002204	x1 = 0.002491
293.15 K	–	–	–	–	–	1.05	1.066	1.071	1.071	1.084
298.15 K	0.905	0.904	0.908	0.913	–	0.935	0.948	0.955	0.955	0.962
303.15 K	0.812	0.811	0.816	–	0.832	0.84	0.85	0.855	0.857	0.859
308.15 K	0.734	0.734	0.739	0.74	0.754	–	0.768	0.77	0.774	0.775
313.15 K	0.669	0.67	0.673	–	–	0.693	0.7	0.702	0.705	0.708

CCCO + O + CCCCCCCCCCCCOS(=O)(=O)[O-].[Na+]
298 K, 100 kPa, frequency 0.001 MHz
Conditions	electrical conductivity [S/m]
x1 = 0.01544, x3 = 0	0.00015
x1 = 0.02615, x2 = 0.9739	0.00015
x1 = 0.04738, x2 = 0.9526	0.00011
x1 = 0.07176, x2 = 0.9282	0.00012
x1 = 0.1087, x2 = 0.8913	0.00014

CC(=O)[O-].[K+] + O + CCCC[n+]1ccn(C)c1.N#C[S-]
viscosity [mPa·s], 101 kPa
Conditions	298.15 K	308.15 K	313.15 K
x1 = 0.01175, x2 = 0.8368	–	–	4.625
x1 = 0.1054, x2 = 0.8943	3.195	2.485	–

CC(=O)[O-].[K+] + O + CCCC[n+]1ccn(C)c1.O=S(=O)([O-])C(F)(F)F
Conditions	viscosity [mPa·s]
308.15 K, 101 kPa, x1 = 0.01574, x2 = 0.9011	1.515

OC[C@H]1O[C@H](O[C@H]2[C@H](O)[C@@H](O)C(O)O[C@@H]2CO)[C@H](O)[C@@H](O)[C@@H]1O (stereo partly drawn) + O + CCCC[n+]1ccn(C)c1.[Cl-]
298.15 K, 101.3 kPa
Conditions	electrical conductivity
x1 = 0.003591, x3 = 5.29e-06	0.00303 S/m
x1 = 0.003591, x3 = 8.39e-06	0.00457 S/m
x1 = 0.003591, x3 = 1.182e-05	0.00625 S/m
x1 = 0.003591, x3 = 1.516e-05	0.00787 S/m
x1 = 0.003591, x3 = 1.84e-05	0.00941 S/m
x1 = 0.003591, x3 = 2.179e-05	0.011 S/m
x1 = 0.003591, x3 = 2.475e-05	0.01239 S/m
x1 = 0.003591, x3 = 2.776e-05	0.0138 S/m
x1 = 0.003591, x3 = 3.087e-05	0.01519 S/m
x1 = 0.003591, x3 = 3.39e-05	0.0165 S/m
x1 = 0.003591, x3 = 3.679e-05	0.0179 S/m
x1 = 0.007156, x3 = 7.85e-06	0.00369 S/m
x1 = 0.007156, x3 = 1.182e-05	0.00532 S/m
x1 = 0.007156, x3 = 1.573e-05	0.00691 S/m
x1 = 0.007156, x3 = 1.984e-05	0.00855 S/m
x1 = 0.007156, x3 = 2.38e-05	0.01011 S/m
x1 = 0.007156, x3 = 2.785e-05	0.0117 S/m
x1 = 0.007156, x3 = 3.214e-05	0.01336 S/m
x1 = 0.007156, x3 = 3.627e-05	0.0149 S/m
x1 = 0.007156, x3 = 4.07e-05	0.0166 S/m
x1 = 0.007156, x3 = 4.483e-05	0.01815 S/m
x1 = 0.0107, x3 = 7.55e-06	0.0031 S/m
x1 = 0.0107, x3 = 1.145e-05	0.00447 S/m
x1 = 0.0107, x3 = 1.56e-05	0.0059 S/m
x1 = 0.0107, x3 = 1.953e-05	0.00725 S/m
x1 = 0.0107, x3 = 2.385e-05	0.0087 S/m
x1 = 0.0107, x3 = 2.86e-05	0.01028 S/m
x1 = 0.0107, x3 = 3.328e-05	0.0118 S/m
x1 = 0.0107, x3 = 3.79e-05	0.01332 S/m
x1 = 0.0107, x3 = 4.278e-05	0.0149 S/m
x1 = 0.0107, x3 = 4.74e-05	0.01635 S/m
x1 = 0.0107, x3 = 5.2e-05	0.0178 S/m
x1 = 0.01421, x3 = 1.044e-05	0.00364 S/m
x1 = 0.01421, x3 = 1.582e-05	0.0052 S/m
x1 = 0.01421, x3 = 2.09e-05	0.00666 S/m
x1 = 0.01421, x3 = 2.625e-05	0.00817 S/m
x1 = 0.01421, x3 = 3.215e-05	0.00982 S/m
x1 = 0.01421, x3 = 3.779e-05	0.01136 S/m
x1 = 0.01421, x3 = 4.365e-05	0.013 S/m
x1 = 0.01421, x3 = 4.958e-05	0.0146 S/m
x1 = 0.01421, x3 = 5.535e-05	0.01611 S/m
x1 = 0.0177, x3 = 7.16e-06	0.00235 S/m
x1 = 0.0177, x3 = 1.43e-05	0.00413 S/m
x1 = 0.0177, x3 = 2.14e-05	0.00587 S/m
x1 = 0.0177, x3 = 2.851e-05	0.0076 S/m
x1 = 0.0177, x3 = 3.535e-05	0.00922 S/m
x1 = 0.0177, x3 = 4.182e-05	0.0107 S/m
x1 = 0.0177, x3 = 4.861e-05	0.01232 S/m
x1 = 0.0177, x3 = 5.526e-05	0.0138 S/m
x1 = 0.0177, x3 = 6.177e-05	0.01534 S/m
x1 = 0.0177, x3 = 6.769e-05	0.0167 S/m
x1 = 0.0177, x3 = 7.386e-05	0.01804 S/m
x1 = 0.02116, x2 = 0.9788	0.0134 S/m and 0.0146 S/m and 0.0157 S/m

O=[N+]([O-])[O-].O=[N+]([O-])[O-].O=[N+]([O-])[O-].[Al+3] + O + CC[NH3+].O=[N+]([O-])[O-]
100 kPa
Conditions	electrical conductivity [S/m]	viscosity [mPa·s]
233 K, x1 = 0.1395, x2 = 0.5934	0.001	–
243 K, x1 = 0.1395, x2 = 0.5934	0.006	–
243 K, x1 = 0.2128, x2 = 0.7086	0.002	–
253 K, x1 = 0.1395, x2 = 0.5934	0.025	–
253 K, x1 = 0.2128, x2 = 0.7086	0.011	–
263 K, x1 = 0.1395, x2 = 0.5934	0.077	–
263 K, x1 = 0.2128, x2 = 0.7086	0.037	–
273 K, x1 = 0.1395, x2 = 0.5934	0.18	–
273 K, x1 = 0.2128, x2 = 0.7086	0.094	–
283 K, x1 = 0.1395, x2 = 0.5934	0.354	–
283 K, x1 = 0.2128, x2 = 0.7086	0.2	–
288.15 K, x1 = 0.1395, x2 = 0.5934	–	274
288.15 K, x1 = 0.2128, x2 = 0.7086	–	880
293 K, x1 = 0.1395, x2 = 0.5934	0.615	–
293 K, x1 = 0.2128, x2 = 0.7086	0.371	–
293.15 K, x1 = 0.1395, x2 = 0.5934	–	204
293.15 K, x1 = 0.2128, x2 = 0.7086	–	587
298.15 K, x1 = 0.1395, x2 = 0.5934	–	153.7
298.15 K, x1 = 0.2128, x2 = 0.7086	–	394
303 K, x1 = 0.1395, x2 = 0.5934	0.974	–
303 K, x1 = 0.2128, x2 = 0.7086	0.624	–
303.15 K, x1 = 0.1395, x2 = 0.5934	–	116.8
303.15 K, x1 = 0.2128, x2 = 0.7086	–	269
308.15 K, x1 = 0.1395, x2 = 0.5934	–	89.5
308.15 K, x1 = 0.2128, x2 = 0.7086	–	185
313 K, x1 = 0.1395, x2 = 0.5934	1.43	–
313 K, x1 = 0.2128, x2 = 0.7086	0.971	–
313.15 K, x1 = 0.1395, x2 = 0.5934	–	69.2
313.15 K, x1 = 0.2128, x2 = 0.7086	–	129.3
323 K, x1 = 0.1395, x2 = 0.5934	2	–
323 K, x1 = 0.2128, x2 = 0.7086	1.42	–
333 K, x1 = 0.1395, x2 = 0.5934	2.66	–
333 K, x1 = 0.2128, x2 = 0.7086	1.98	–
343 K, x1 = 0.1395, x2 = 0.5934	3.41	–
343 K, x1 = 0.2128, x2 = 0.7086	2.64	–
353 K, x1 = 0.1395, x2 = 0.5934	4.25	–
353 K, x1 = 0.2128, x2 = 0.7086	3.42	–
363 K, x1 = 0.1395, x2 = 0.5934	5.17	–
363 K, x1 = 0.2128, x2 = 0.7086	4.3	–
373 K, x1 = 0.1395, x2 = 0.5934	6.16	–
373 K, x1 = 0.2128, x2 = 0.7086	5.28	–

CCCC[n+]1ccn(C)c1.N#C[N-]C#N + O + NCCO
100 kPa, x1 = 0.2918, x2 = 0.2557
Conditions	viscosity [mPa·s]
303 K	11.73
308 K	9.99
313 K	8.59
318 K	7.46
323 K	6.53
